# Measurements from paper doi:10.1101/2024.08.25.609621 (bioRxiv, 2024).
# Read-outs that look alike come from different tables or passages of the source.
# Target: SARS-CoV-2 NSP3 macrodomain (Mac1), P43 crystal form (Severe acute respiratory syndrome coronavirus 2, UniProt P0DTD1)
# Format: binding
# Settings: for 1-BDC: PanDDA background density correction; for Total number of conformations: ligand conformations modeled in Mac1 crystal structure; for 2*(1-BDC) (%): occupancy estimate from PanDDA 1-BDC; for X-ray crystallography: Binding site: site where the ligand is bound in the X-ray crystal structure; for X-ray crystal structure: X-ray crystal structure determined (TRUE); for Binding site: site of ligand in X-ray crystal structure
# [1] = crystal soak 10 mM, P43 crystals
# [2] = crystal soak, soak concentration 10 mM
# [3] = crystal soak, soak concentration 10 mM, TRUE = ligand hit
Structure (SMILES),1-BDC,"Pandda run, overall: Hit [1]","PanDDA run, DMSO background map: 1-BDC (crystal soak 10 mM)","PanDDA run, DMSO background map: Hit (crystal soak 10 mM)",Total number of conformations,2*(1-BDC) (%),X-ray crystallography: Binding site,X-ray crystal structure,Binding site,"Pandda run, overall: Modeled [2]","Pandda run, overall: Hit [3]","PanDDA run, DMSO background map: 1-BDC (soak concentration 10 mM)","PanDDA run, DMSO background map: Hit (soak concentration 10 mM)",other results
OCC1CCCN1c1ncnc2[nH]ccc12 (centres unmarked) [AVI-3685],0.25,TRUE,0.25,TRUE,1,50,Adenosine,,,,,,,"Pandda run, overall: Modeled [1]: TRUE"
OCC(Cc1ccc(I)cc1)Nc1ncnc2[nH]ccc12 (centres unmarked) [AVI-3686],0.2,TRUE,0.2,TRUE,2,40,,TRUE,Adenosine,,,,,"Pandda run, overall: Modeled [1]: TRUE"
O=C(O)C(F)(F)F.OCC(Nc1ncnc2[nH]ccc12)C(O)C1CCCCC1 (centres unmarked) [AVI-3687],,TRUE,0.15,TRUE,,,,,,,,,,"Pandda run, overall: Modeling comment [1]: Weak density, not modeled; PanDDA run, TFA/DMSO background map: 1-BDC (crystal soak 10 mM): 0.08; PanDDA run, TFA/DMSO background map: Hit (crystal soak 10 mM): TRUE"
O=C(O)C(F)(F)F.OCC1(Nc2ncnc3[nH]ccc23)CC1 [AVI-3688],0.2,TRUE,0.2,TRUE,1,40,,TRUE,Adenosine,,,,,"Pandda run, overall: Modeled [1]: TRUE"
OCC(CC1CCCCC1)Nc1ncnc2[nH]ccc12 (centres unmarked) [AVI-3690],0.12,TRUE,0.12,TRUE,1,24,,TRUE,Adenosine,,,,,"Pandda run, overall: Modeled [1]: TRUE; Pandda run, overall: Modeling comment [1]: Weak density for alternative ligand conformation"
OCC(CC1CCCC1)Nc1ncnc2[nH]ccc12 (centres unmarked) [AVI-3691],0.18,TRUE,0.18,TRUE,1,36,,TRUE,Adenosine,,,,,"Pandda run, overall: Modeled [1]: TRUE"
OCC(Nc1ncnc2[nH]ccc12)C1CCc2ccccc21 (centres unmarked) [AVI-3693],0.22,TRUE,0.22,TRUE,2,44,,TRUE,Adenosine,,,,,"Pandda run, overall: Modeled [1]: TRUE"
OCC(Cc1ccccn1)Nc1ncnc2[nH]ccc12 (centres unmarked) [AVI-3696],0.13,TRUE,0.13,TRUE,2,26,,TRUE,Adenosine,,,,,"Pandda run, overall: Modeled [1]: TRUE"
OCC(O)C1CCCN1c1ncnc2[nH]ccc12 (centres unmarked) [AVI-3701],0.18,,,,1,36,Adenosine,,,TRUE,TRUE,0.18,TRUE,
O=C(O)C(F)(F)F.OC[C@H]1CC2(CN1c1ncnc3[nH]ccc13)OCCO2 [AVI-3702],0.21,,,,1,42,Adenosine,,,TRUE,TRUE,0.21,TRUE,
OCC(Cc1cncs1)Nc1ncnc2[nH]ccc12 (centres unmarked) [AVI-3703],0.15,,,,1,30,,TRUE,Adenosine,TRUE,TRUE,0.15,TRUE,
OCC(Cc1ccoc1)Nc1ncnc2[nH]ccc12 (centres unmarked) [AVI-3705],0.21,,,,1,42,,TRUE,Adenosine,TRUE,TRUE,0.21,TRUE,
O=C(O)C(F)(F)F.OCC(Cc1cccc(F)c1)Nc1ncnc2[nH]ccc12 (centres unmarked) [AVI-3706],,,,,,,,,,,,,,"Pandda run, overall: Modeling comment [2]: TFA only"
OCC1CC2(CCOCC2)CN1c1ncnc2[nH]ccc12 (centres unmarked) [AVI-3707],0.21,,,,1,42,Adenosine,,,TRUE,TRUE,0.21,TRUE,"Pandda run, overall: Modeling comment [2]: Distal site, weak density, not modeled"
OCC(COCc1ccccc1)Nc1ncnc2[nH]ccc12 (centres unmarked) [AVI-3709],0.19,,,,2,38,,TRUE,Adenosine,TRUE,TRUE,0.19,TRUE,
O=C(O)C(F)(F)F.OC[C@@H]1CC2(CC2)CN1c1ncnc2[nH]ccc12 [AVI-3710],0.26,,,,2,52,Adenosine,,,TRUE,TRUE,0.26,TRUE,"Pandda run, overall: Modeling comment [2]: Weak density for open state of Phe132 loop"
OCC(Cc1cccs1)Nc1ncnc2[nH]ccc12 (centres unmarked) [AVI-3711],0.21,,,,1,42,,TRUE,Adenosine,TRUE,TRUE,0.21,TRUE,
O=C(O)C(F)(F)F.OCC1C2C=CC(C2)N1c1ncnc2[nH]ccc12 (centres unmarked) [AVI-3712],,,,,,,,,,,TRUE,0.15,TRUE,"Pandda run, overall: Modeling comment [2]: Weak density, not modeled; PanDDA run, TFA/DMSO background map: 1-BDC (soak concentration 10 mM): 0.05; PanDDA run, TFA/DMSO background map: Hit (soak concentration 10 mM): TRUE"
CC(C)(C)C(O)CC(CO)Nc1ncnc2[nH]ccc12.O=C(O)C(F)(F)F (centres unmarked) [AVI-3714],,,,,,,,,,,,,,"Pandda run, overall: Modeling comment [2]: TFA only"
OCC(Nc1ncnc2[nH]ccc12)c1ccccc1 (centres unmarked) [AVI-3715],0.18,,,,1,36,,TRUE,Adenosine,TRUE,TRUE,0.18,TRUE,
OCC1COCCN1c1ncnc2[nH]ccc12 (centres unmarked) [AVI-3717],0.14,,,,2,28,Adenosine,,,TRUE,TRUE,0.14,TRUE,
CC(C)(C)C1CCC(CO)N(c2ncnc3[nH]ccc23)C1 (centres unmarked) [AVI-3719],0.08,,,,1,16,Adenosine,,,TRUE,TRUE,0.08,TRUE,Phe132 loop open state (TRUE = open state of Phe132 loop modeled): TRUE
CN1CCN(c2ncnc3[nH]ccc23)C(CO)C1 (centres unmarked) [AVI-3721],0.06,,,,2,12,Adenosine,,,TRUE,TRUE,0.06,TRUE,
CC(C)(C)[C@@H]1CCN(c2ncnc3[nH]ccc23)[C@H](CO)C1 [AVI-3722],0.11,,,,1,22,Adenosine,,,TRUE,TRUE,0.11,TRUE,
CC1(C)CCC(CO)N(c2ncnc3[nH]ccc23)C1 (centres unmarked) [AVI-3726],0.17,,,,3,34,Adenosine,,,TRUE,TRUE,0.17,TRUE,
OCC1CC2(CCCCC2)CN1c1ncnc2[nH]ccc12 (centres unmarked) [AVI-3727],0.29,,,,1,58,Adenosine,,,TRUE,TRUE,0.29,TRUE,"Pandda run, overall: Modeling comment [2]: Distal site, weak density, not modeled"
